Source: the supplement of paper PMC5579334

Assays:
ST8814 [1] = experiment: relative IC50 (inflection point of fitted dose-response curve, CellTox-Green cytotoxicity, 72 h; top asymptote may be below 50%); higher = less potent
Outline: (§1)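 For 72 h at 37 °C, MPNST cell lines and primary human Schwann cells were exposed in 384-well plates to five 10-fold compound dilutions. CellTox-Green, added before seeding at a final 1:1000 dilution, gave fluorescence from DNA released by disrupted cells. Signals were scaled to vehicle and positive-control wells, cultures failing plate quality control were left out, and four-parameter logistic fits were applied. Relative IC50 and drug sensitivity score were derived from the fits, with IC50 censored at the top concentration.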

STS26T [2] = experiment: as above
Outline: as §1

HSC2 [3] = experiment: as above
Outline: as §1

HSC1 [4] = experiment: as above
Outline: as §1

HS-PSS [5] = experiment: as above
Outline: as §1

S1507-2 [6] = experiment: as above
Outline: as §1

ST8814 [7] = experiment: relative IC50 (inflection point of fitted dose-response curve, CellTiter-Glo viability, 72 h; top asymptote may be below 50% inhibition); higher = less potent
Outline: (§2)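 MPNST cell lines and primary human Schwann cells were seeded at 750–1000 cells per well into 384-well plates preprinted with each compound at five concentrations in 10-fold steps, then incubated 72 h at 37 °C, 5% CO2. CellTiter-Glo ATP luminescence gave viability, scaled between vehicle and positive-control wells, with duplicates averaged where present. Curves were fitted with a four-parameter logistic model. Percent inhibition refers to the top concentration, while drug sensitivity score and relative IC50, censored at the top concentration, come from these fits.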

HS-Sch-2 = experiment: as above
Outline: as §2

STS26T [8] = experiment: as above
Outline: as §2

YST-1 = experiment: as above
Outline: as §2

S462 = experiment: as above
Outline: as §2

HSC2 [9] = experiment: as above
Outline: as §2

HSC1 [10] = experiment: as above
Outline: as §2

S1507-2 [11] = experiment: as above
Outline: as §2

HS-PSS [12] = experiment: as above
Outline: as §2

| Structure (SMILES) | relative IC50 (ST8814 [1]) | relative IC50 (STS26T [2]) | relative IC50 (HSC2 [3]) | relative IC50 (HSC1 [4]) | relative IC50 (HS-PSS [5]) | relative IC50 (S1507-2 [6]) | relative IC50 (ST8814 [7]) | relative IC50 (HS-Sch-2) | relative IC50 (STS26T [8]) | relative IC50 (YST-1) | relative IC50 (S462) | relative IC50 (HSC2 [9]) | relative IC50 (HSC1 [10]) | relative IC50 (S1507-2 [11]) | relative IC50 (HS-PSS [12]) |
| --- | --- | --- | --- | --- | --- | --- | --- | --- | --- | --- | --- | --- | --- | --- | --- |
| Nc1nc(OCc2cc(Br)cs2)c2[nH]cnc2n1 [Lomeguatrib] | > 10000 nM | > 10000 nM | > 10000 nM | > 10000 nM | > 10000 nM | > 10000 nM | > 10000 nM | > 10000 nM | > 10000 nM | > 10000 nM | > 10000 nM | > 10000 nM | > 10000 nM | > 10000 nM | – |
| C=CCn1c(=O)c2cnc(Nc3ccc(N4CCN(C)CC4)cc3)nc2n1-c1cccc(C(C)(C)O)n1 [MK1775] | 375 nM | 167 nM | 1510 nM | 1210 nM | – | 196 nM | 264 nM | 84.1 nM | 361 nM | 326 nM | 111 nM | 225 nM | 224 nM | 231 nM | 547 nM |
| COC(=O)C[C@](O)(CCCC(C)(C)O)C(=O)O[C@@H]1C(OC)=C[C@]23CCCN2CCc2cc4c(cc2[C@H]13)OCO4 [Omacetaxine] | 489 nM | 130 nM | 589 nM | 1090 nM | – | 524 nM | 46.5 nM | 67.5 nM | 41.6 nM | 9.94 nM | 23.8 nM | 50.8 nM | 51.7 nM | 66.1 nM | 47 nM |
| OC[C@H]1O[C@@H](n2cnc3c2N=CNC[C@H]3O)C[C@@H]1O [Pentostatin] | > 10000 nM | > 10000 nM | > 10000 nM | > 10000 nM | > 10000 nM | > 10000 nM | > 10000 nM | > 10000 nM | > 10000 nM | – | > 10000 nM | > 10000 nM | > 10000 nM | > 10000 nM | > 10000 nM |
| Cn1c(Nc2ccc(C(F)(F)F)cc2)nc2cc(Oc3ccnc(-c4ncc(C(F)(F)F)[nH]4)c3)ccc21 [RAF265] | > 1000 nM | > 1000 nM | > 1000 nM | > 1000 nM | > 1000 nM | > 1000 nM | 107 nM | – | 137 nM | 131 nM | 111 nM | 20.6 nM | 49.6 nM | 136 nM | 177 nM |
| CNC(=O)c1cc(Oc2ccc(NC(=O)Nc3ccc(Cl)c(C(F)(F)F)c3)cc2)ccn1 [Sorafenib] | > 1000 nM | > 1000 nM | > 1000 nM | > 1000 nM | > 1000 nM | > 1000 nM | > 1000 nM | > 1000 nM | > 1000 nM | – | > 1000 nM | > 1000 nM | > 1000 nM | > 1000 nM | > 1000 nM |
| CC(=O)Nc1ccc(C(=O)Nc2ccccc2N)cc1 [Tacedinaline] | > 1000 nM | > 1000 nM | > 1000 nM | > 1000 nM | – | > 1000 nM | > 1000 nM | > 1000 nM | > 1000 nM | > 1000 nM | > 1000 nM | > 1000 nM | > 1000 nM | > 1000 nM | > 1000 nM |
| S=P(N1CC1)(N1CC1)N1CC1 [Thio-TEPA] | > 50000 nM | > 50000 nM | > 50000 nM | > 50000 nM | > 50000 nM | > 50000 nM | > 50000 nM | – | > 50000 nM | > 50000 nM | > 50000 nM | > 50000 nM | > 50000 nM | > 50000 nM | > 50000 nM |
| O=C1NC(=O)[C@@H](c2cn3c4c(cccc24)CCC3)[C@@H]1c1c[nH]c2ccccc12 [Tivantinib] | 328 nM | 210 nM | 243 nM | 240 nM | – | 253 nM | 330 nM | 231 nM | 239 nM | 190 nM | 340 nM | 251 nM | 276 nM | 254 nM | 239 nM |
| CC[C@]1(O)C[C@@H]2CN(CCc3c([nH]c4ccccc34)[C@@](C(=O)OC)(c3cc4c(cc3OC)N(C)[C@H]3[C@@](O)(C(=O)OC)[C@H](OC(C)=O)[C@]5(CC)C=CCN6CC[C@]43[C@@H]65)C2)C1 [Vinblastine] | 2.83 nM | 2.01 nM | 13.7 nM | 31.9 nM | – | 4.53 nM | 2.98 nM | 2.21 nM | 2.86 nM | 3.76 nM | 3.13 nM | 5.82 nM | 6.83 nM | 5.3 nM | 10.9 nM |
| CC[C@]1(O)C[C@H]2CN(CCc3c([nH]c4ccccc34)[C@@](C(=O)OC)(c3cc4c(cc3OC)N(C=O)[C@H]3[C@@](O)(C(=O)OC)[C@H](OC(C)=O)[C@]5(CC)C=CCN6CC[C@]43[C@@H]65)C2)C1 [Vincristine] | 6.85 nM | 1.13 nM | 44.7 nM | 62.2 nM | – | 8.92 nM | 6.95 nM | 2.19 nM | 1.76 nM | 2.18 nM | 3.42 nM | 11 nM | 10.3 nM | 6.45 nM | 9.51 nM |
| CCC1=C[C@@H]2CN(C1)Cc1c([nH]c3ccccc13)[C@@](C(=O)OC)(c1cc3c(cc1OC)N(C)[C@H]1[C@@](O)(C(=O)OC)[C@H](OC(C)=O)[C@]4(CC)C=CCN5CC[C@]31[C@@H]54)C2 [Vinorelbine] | 212 nM | 15.3 nM | 647 nM | 484 nM | – | 129 nM | 140 nM | 4.21 nM | 22.5 nM | 3 nM | 34 nM | 95.7 nM | 153 nM | 109 nM | 21.4 nM |
